Laboratory results: ChEMBL document CHEMBL6074684, “Structure-activity relationship study of novel evodiamine amino acid conjugates with potent anti-colorectal cancer efficacy” (Eur J Med Chem, 2025)

Columns and labels:
Type in all cases: functional, cell-based
HCT-116 = test: Antiproliferative activity against human […] cells assessed as inhibition of cell growth incubated for 72 hrs by MTT assay; details: HCT-116, 72 h
HT-29 = test: Antiproliferative activity against human HT-29 cells assessed as inhibition of cell growth incubated for 72 hrs by MTT assay; details: HT-29, 72 h
SK-HEP1 = test: Antiproliferative activity against human SK-HEP1 cells assessed as inhibition of cell growth incubated for 72 hrs by MTT assay; details: SK-HEP1, 72 h
RKO = test: Antiproliferative activity against human RKO cells assessed as inhibition of cell growth incubated for 72 hrs by MTT assay
Huh-7 = test: Antiproliferative activity against human Huh-7 cells assessed as inhibition of cell growth incubated for 72 hrs by MTT assay; details: Huh-7, 72 h
MGC-803 = test: Antiproliferative activity against human MGC-803 cells assessed as inhibition of cell growth incubated for 72 hrs by MTT assay; details: MGC-803, 72 h
MCF7 = test: Antiproliferative activity against human MCF7 cells assessed as inhibition of cell growth incubated for 72 hrs by MTT assay; details: MCF7, 72 h
SGC-7901 = test: Antiproliferative activity against human SGC-7901 cells assessed as inhibition of cell growth incubated for 72 hrs by MTT assay; details: SGC-7901, 72 h
LoVo = test: Antiproliferative activity against human LoVo cells assessed as inhibition of cell growth incubated for 72 hrs by MTT assay
HGC-27 = test: Antiproliferative activity against human HGC-27 cells assessed as inhibition of cell growth incubated for 72 hrs by MTT assay; details: HGC-27, 72 h

IC50 (HCT-116)	IC50 (HT-29)	IC50 (SK-HEP1)	IC50 (Huh-7)	IC50 (MGC-803)	IC50 (MCF7)	IC50 (SGC-7901)	IC50 (LoVo)	SMILES	IC50 (RKO)	IC50 (HGC-27)
0.37 µM	0.28 µM	2.65 µM	0.16 µM	0.31 µM	1.98 µM	0.63 µM	0.23 µM	C[C@H](NC(=O)OC(C)(C)C)C(=O)Oc1ccc2[nH]c3c(c2c1)CCN1C(=O)c2cc(F)ccc2N(c2cccc(F)c2)[C@H]31	0.12 µM	0.27 µM
> 100 µM	52.5 µM	62.4 µM	46 µM	> 100 µM	69.8 µM	> 100 µM	55.8 µM	CCC(C)[C@H](NC(=O)OC(C)(C)C)C(=O)Oc1ccc2[nH]c3c(c2c1)CCN1C(=O)c2cc(F)ccc2N(c2cccc(F)c2)[C@@H]31 (some centres undefined)	> 100 µM	55.7 µM
21 µM	28.3 µM	33.5 µM	12.8 µM	15.5 µM	47 µM	66.5 µM	12.4 µM	CC(C)(C)OC(=O)N[C@@H](Cc1cnc[nH]1)C(=O)Oc1ccc2[nH]c3c(c2c1)CCN1C(=O)c2cc(F)ccc2N(c2cccc(F)c2)[C@@H]31	16.3 µM	23.7 µM
24.2 µM	30.2 µM	36.6 µM	13.5 µM	18.6 µM	30.6 µM	67.3 µM	18.3 µM	CC(C)(C)OC(=O)N[C@@H](Cc1c[nH]c2ccccc12)C(=O)Oc1ccc2[nH]c3c(c2c1)CCN1C(=O)c2cc(F)ccc2N(c2cccc(F)c2)[C@@H]31	15.9 µM	25.6 µM
20.2 µM	28.7 µM	38.5 µM	13.8 µM	17.8 µM	50.5 µM	46.1 µM	14.9 µM	CSCC[C@H](NC(=O)OC(C)(C)C)C(=O)Oc1ccc2[nH]c3c(c2c1)CCN1C(=O)c2cc(F)ccc2N(c2cccc(F)c2)[C@@H]31	20.5 µM	28.6 µM
24.6 µM	29.4 µM	35.9 µM	10.1 µM	16.2 µM	22.1 µM	57.1 µM	15.3 µM	CC(C)(C)OC(=O)N[C@@H](COCc1ccccc1)C(=O)Oc1ccc2[nH]c3c(c2c1)CCN1C(=O)c2cc(F)ccc2N(c2cccc(F)c2)[C@@H]31	16.8 µM	20.6 µM

The remaining lines, values behind:

SMILES	IC50 (HCT-116)	IC50 (HT-29)	IC50 (SK-HEP1)	IC50 (Huh-7)	IC50 (MGC-803)	IC50 (MCF7)	IC50 (SGC-7901)	IC50 (LoVo)	IC50 (RKO)	IC50 (HGC-27)
CC(C)C[C@H](NC(=O)OC(C)(C)C)C(=O)Oc1ccc2[nH]c3c(c2c1)CCN1C(=O)c2cc(F)ccc2N(c2cccc(F)c2)[C@@H]31	16.8 µM	21.4 µM	35.1 µM	9.73 µM	7.56 µM	22.7 µM	41.8 µM	10.2 µM	10.5 µM	18.6 µM
CCC(C)[C@H](NC(=O)OC(C)(C)C)C(=O)Oc1ccc2[nH]c3c(c2c1)CCN1C(=O)c2cc(F)ccc2N(c2cccc(F)c2)[C@H]31 (some centres undefined)	0.55 µM	0.44 µM	0.97 µM	0.31 µM	0.48 µM	0.81 µM	1.57 µM	0.32 µM	0.23 µM	0.52 µM
CC(C)[C@H](NC(=O)OC(C)(C)C)C(=O)Oc1ccc2[nH]c3c(c2c1)CCN1C(=O)c2cc(F)ccc2N(c2cccc(F)c2)[C@@H]31	29 µM	25.8 µM	37.8 µM	14.2 µM	20.8 µM	30.4 µM	44.3 µM	21.9 µM	11.9 µM	22.3 µM
CC(C)(C)OC(=O)N[C@@H](Cc1cnc[nH]1)C(=O)Oc1ccc2[nH]c3c(c2c1)CCN1C(=O)c2cc(F)ccc2N(c2cccc(F)c2)[C@H]31	0.36 µM	0.36 µM	0.77 µM	0.27 µM	0.2 µM	0.74 µM	0.23 µM	0.12 µM	0.11 µM	0.16 µM
O=C1c2cc(F)ccc2N(c2cccc(F)c2)[C@H]2c3[nH]c4ccc(O)cc4c3CCN12	0.35 µM	0.18 µM	–	–	–	–	–	0.13 µM	0.1 µM	–
